In paper PMC8979230 (RSC Advances, 2022) one finds IC50 data, which are given here for one substance.

pIC50: −log10 of the molar value.

By pIC50 is commonly meant −log10 of the IC50, conventionally taken in molar units.

This test has as its target PDE10A (Homo sapiens, UniProt Q9Y233). The test is classed as biochemical.

Sequence of PDE10A (Q9Y233 whole entry): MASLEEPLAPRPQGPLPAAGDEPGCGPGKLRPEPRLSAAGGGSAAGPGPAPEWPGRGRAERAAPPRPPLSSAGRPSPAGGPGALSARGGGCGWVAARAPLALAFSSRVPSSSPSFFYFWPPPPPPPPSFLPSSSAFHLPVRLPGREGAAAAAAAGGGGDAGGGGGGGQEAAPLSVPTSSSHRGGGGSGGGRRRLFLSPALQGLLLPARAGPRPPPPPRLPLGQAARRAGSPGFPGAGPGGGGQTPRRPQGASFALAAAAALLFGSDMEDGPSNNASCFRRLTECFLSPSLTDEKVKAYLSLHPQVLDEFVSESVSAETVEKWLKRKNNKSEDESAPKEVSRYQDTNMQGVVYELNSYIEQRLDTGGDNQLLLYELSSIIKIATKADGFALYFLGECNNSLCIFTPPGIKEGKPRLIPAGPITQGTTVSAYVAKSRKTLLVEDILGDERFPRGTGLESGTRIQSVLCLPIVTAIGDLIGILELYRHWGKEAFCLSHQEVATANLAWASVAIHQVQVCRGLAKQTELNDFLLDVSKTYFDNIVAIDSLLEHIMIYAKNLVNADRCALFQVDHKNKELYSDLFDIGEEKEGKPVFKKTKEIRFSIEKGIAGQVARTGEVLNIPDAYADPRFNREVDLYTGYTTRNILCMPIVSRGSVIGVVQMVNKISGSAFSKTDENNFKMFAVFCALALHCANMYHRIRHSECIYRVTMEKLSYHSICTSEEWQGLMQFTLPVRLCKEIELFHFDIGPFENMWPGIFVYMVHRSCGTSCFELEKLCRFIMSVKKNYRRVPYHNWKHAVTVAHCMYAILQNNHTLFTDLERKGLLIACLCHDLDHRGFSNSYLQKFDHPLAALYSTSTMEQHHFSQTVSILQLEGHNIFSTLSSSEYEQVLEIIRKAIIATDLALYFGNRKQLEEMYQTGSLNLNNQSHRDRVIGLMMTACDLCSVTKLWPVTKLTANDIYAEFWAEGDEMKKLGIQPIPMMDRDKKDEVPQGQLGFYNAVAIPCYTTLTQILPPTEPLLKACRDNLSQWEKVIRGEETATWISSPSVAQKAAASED

The substance Zinc42657360 showed a pIC50 of 5.80.
